In patent publication US20140343000A1 (priority 2011, published 2014) one finds EC50 data, which are given here for 6 compounds.

As usually defined, the EC50 is the concentration needed to bring the measured effect to its halfway point.

In this test the test system is recombinant NL4-3 virus (Renilla luciferase in nef, Gag P373S; NLRluc) in MT-2 cells. Briefly: whole plant or invertebrate. The format is cell-based, HIV. Conditions: Renilla, NL43, luciferase activity in cells infected for 4-5 days with NLRluc recombinants, serial dilutions of inhibitor; class symbols (key in Table 1); read-out: EC50. A digest of the protocol: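 MT-2 cells in RPMI 1640 with 10% heat-inactivated FBS were infected with the reporter virus, made by transfecting the proviral clone into 293T cells, and cultured 4-5 days with serial inhibitor dilutions. Antiviral activity was quantified from Renilla luciferase activity measured in lysed cells.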
`C=C(C)[C@@H]1CC[C@]2(NC(=O)OCCCN3CCS(=O)(=O)CC3)CC[C@]3(C)[C@H](CC[C@@H]4[C@@]5(C)CC=C(c6ccc(C(=O)O)cc6)C(C)(C)[C@@H]5CC[C@]43C)[C@@H]12` [Example 70, benzoic acid, 4-[(1R,3aS,5aR,5bR,7aR,11aS,11bR,13aR,13bR)-3a-[[[3-(1,1-dioxido-4-thiomorpholinyl)propoxy]carbonyl]amino]2,3,3a,4,5,5a,5b,6,7,7a,8,11,11a,11b,12,13,13a,13b-octadecahydro-5a,5b,8,8,11a-pentamethyl-1-(1-methylethenyl)-1H-cyclopenta[a]chrysen-9-yl]]: the EC50 is below 100 nM.
Regarding `C=C(C)[C@@H]1CC[C@]2(NC(=O)OCCN3CCS(=O)(=O)CC3)CC[C@]3(C)[C@H](CC[C@@H]4[C@@]5(C)CC=C(c6ccc(C(=O)O)cc6)C(C)(C)[C@@H]5CC[C@]43C)[C@@H]12` [Example 71, benzoic acid, 4-[(1R,3aS,5aR,5bR,7aR,11aS,11bR,13aR,13bR)-3a-[[[2-(1,1-dioxido-4-thiomorpholinyl)ethoxy]carbonyl]amino]-2,3,3a,4,5,5a,5b,6,7,7a,8,11,11a,11b,12,13,13a,13b-octadecahydro-5a,5b,8,8,11a-pentamethyl-1-(1-methylethenyl)-1H-cyclopenta[a]chrysen-9-yl]], the EC50 was below 100 nM.
On to `C=C(C)[C@@H]1CC[C@]2(NC(=O)OCCCCN3CCS(=O)(=O)CC3)CC[C@]3(C)[C@H](CC[C@@H]4[C@@]5(C)CC=C(c6ccc(C(=O)O)cc6)C(C)(C)[C@@H]5CC[C@]43C)[C@@H]12` [Example 72, benzoic acid, 4-[(1R,3aS,5aR,5bR,7aR,11aS,11bR,13aR,13bR)-3a-[[[4-(1,1-dioxido-4-thiomorpholinyl)butoxy]carbonyl]amino]-2,3,3a,4,5,5a,5b,6,7,7a,8,11,11a,11b,12,13,13a,13b-octadecahydro-5a,5b,8,8,11a-pentamethyl-1-(1-methylethenyl)-1H-cyclopenta[a]chrysen-9-yl]], for which the EC50 was below 100 nM.
The result for `C=C(C)[C@@H]1CC[C@]2(NC(=O)CCN(C)C)CC[C@]3(C)[C@H](CC[C@@H]4[C@@]5(C)CC=C(c6ccc(C(=O)O)cc6)C(C)(C)[C@@H]5CC[C@]43C)[C@@H]12` [Example 73, 4-((1R,3aS,5aR,5bR,7aR,11aS,11bR,13aR,13bR)-3a-(3-(dimethylamino)propanamido)-5a,5b,8,8,11a-pentamethyl-1-(prop-1-en-2-yl)-2,3,3a,4,5,5a,5b,6,7,7a,8,11,11a,11b,12,13,13a,13b-octadecahydro-1H-cyclopenta[a]chrysen-9-yl)benzoic acid] reads below 100 nM; that for `C=C(C)[C@@H]1CC[C@]2(NC(=O)CCCN(C)C)CC[C@]3(C)[C@H](CC[C@@H]4[C@@]5(C)CC=C(c6ccc(C(=O)O)cc6)C(C)(C)[C@@H]5CC[C@]43C)[C@@H]12` [Example 74, 4-((1R,3aS,5aR,5bR,7aR,11aS,11bR,13aR,13bR)-3a-(4-(dimethylamino)butanamido)-5a,5b,8,8,11a-pentamethyl-1-(prop-1-en-2-yl)-2,3,3a,4,5,5a,5b,6,7,7a,8,11,11a,11b,12,13,13a,13b-octadecahydro-1H-cyclopenta[a]chrysen-9-yl)benzoic acid], below 100 nM.
Take `C=C(C)[C@@H]1CC[C@]2(NC(=O)CCc3nccn3C)CC[C@]3(C)[C@H](CC[C@@H]4[C@@]5(C)CC=C(c6ccc(C(=O)O)cc6)C(C)(C)[C@@H]5CC[C@]43C)[C@@H]12` [Example 75, 4-((1R,3aS,5aR,5bR,7aR,11aS,11bR,13aR,13bR)-5a,5b,8,8,11a-pentamethyl-3a-(3-(1-methyl-1H-imidazol-2-yl)propanamido)-1-(prop-1-en-2-yl)-2,3,3a,4,5,5a,5b,6,7,7a,8,11,11a,11b,12,13,13a,13b-octadecahydro-1H-cyclopenta[a]chrysen-9-yl)benzoic acid]: the concentration for a half-maximal effect (EC50) is below 100 nM.
